These results are taken from ChEMBL document CHEMBL1201862, “PubChem BioAssay data set” (2004).

In test [1] the target is T1, Microphthalmia-associated transcription factor (Homo sapiens, UniProt O75030).
T1 sequence (O75030 whole entry): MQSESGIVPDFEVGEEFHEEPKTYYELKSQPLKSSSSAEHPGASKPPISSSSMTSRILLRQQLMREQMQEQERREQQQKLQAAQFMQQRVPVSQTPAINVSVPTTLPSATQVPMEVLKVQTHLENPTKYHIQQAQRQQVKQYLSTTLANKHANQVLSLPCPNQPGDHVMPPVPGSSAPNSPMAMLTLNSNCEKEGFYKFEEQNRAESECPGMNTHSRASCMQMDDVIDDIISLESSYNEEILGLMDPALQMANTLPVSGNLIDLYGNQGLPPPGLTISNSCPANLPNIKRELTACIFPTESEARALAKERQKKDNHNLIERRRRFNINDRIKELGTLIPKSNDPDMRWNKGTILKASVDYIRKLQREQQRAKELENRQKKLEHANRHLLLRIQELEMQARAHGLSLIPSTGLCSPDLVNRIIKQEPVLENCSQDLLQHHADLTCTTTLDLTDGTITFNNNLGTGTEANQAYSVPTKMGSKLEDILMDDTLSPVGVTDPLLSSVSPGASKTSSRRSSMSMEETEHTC
Nature of the test: reducers of TRPM1 reporter luminescence, concentration series – cell-based, SK-MEL-5, cherry-picked, set 3, MITF inhibitor project, dose response (AID 493073).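 Further: SK-MEL-5 melanoma cells with luciferase driven by the MITF target TRPM1 promoter.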 In kind it is functional.

The nature of test [2]: viability of PTEN-deleted HCT116 cells – cell-based, HCT116 PTEN knockout, dose response (AID 1047).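 Further: HCT116 colon tumor cells with PTEN knocked out; cells exposed to compound for 60 hours before readout; potency for loss of cell viability measured by luminescence.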 The class given is functional.
In another test the test system is A-375. In words: proliferation inhibition in MITF-low A375 cells – cell-based, cherry-pick samples, set 2, counter-screen for MITF modulator project, dose response (AID 540335). The class given is functional. Conditions: Homo sapiens. On the technique in general: The purpose of a counterscreen is to sort out artefacts and off-target activity.
The target of the next test is Beta-galactosidase (Escherichia coli, UniProt Q8VNN2). In words: detection-enzyme interference by beta-gal modulators – biochemical, E. coli enzyme, set 3, artefact control for CCR6 antagonist project, dose response (AID 504712). In kind it is functional.
A short description of test [3]: viability of HCT116 lacking mutant beta-catenin – cell-based, human colon tumor, dose response (AID 1045).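 Further: HCT116 colon tumor cells with beta catenin knocked out; cells exposed to compound for 60 hours.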 The class given is functional.
Test [4] concerns the target Serine/threonine-protein phosphatase (Homo sapiens, UniProt Q9BPW0). In words: inhibition of protein phosphatase 5 activity – biochemical, fluorescence, dose response (AID 2395).
For test [5], the target named is Serine/threonine-protein phosphatase PP1-alpha catalytic subunit (Homo sapiens, UniProt P62136). Nature of the test: inhibition of protein phosphatase 1 activity – biochemical, fluorescence, dose response (AID 2394).
Test [6] concerns the target T2, Heat shock factor protein 1 (Mus musculus, UniProt P38532).
T2 sequence (P38532 whole entry): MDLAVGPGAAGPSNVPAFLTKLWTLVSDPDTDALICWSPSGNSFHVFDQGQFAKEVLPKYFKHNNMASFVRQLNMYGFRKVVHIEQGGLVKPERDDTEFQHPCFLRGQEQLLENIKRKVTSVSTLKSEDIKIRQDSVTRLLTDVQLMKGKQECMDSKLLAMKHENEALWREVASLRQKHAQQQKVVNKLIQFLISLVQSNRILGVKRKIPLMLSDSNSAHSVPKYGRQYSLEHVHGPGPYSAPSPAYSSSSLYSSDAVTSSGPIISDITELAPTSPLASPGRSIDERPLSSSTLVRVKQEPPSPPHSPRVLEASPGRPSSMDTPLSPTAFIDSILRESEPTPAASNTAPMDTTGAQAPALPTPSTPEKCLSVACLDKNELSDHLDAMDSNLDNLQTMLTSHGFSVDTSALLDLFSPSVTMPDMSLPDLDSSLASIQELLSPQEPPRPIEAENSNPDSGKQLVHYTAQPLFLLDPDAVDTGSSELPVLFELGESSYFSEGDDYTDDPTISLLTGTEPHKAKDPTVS
Nature of the test: enhancement of HSF1-driven luciferase signal – cell-based, NIH3T3, luminescence, dose retest, confirmation (AID 435004).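 Further: stress induced by proteasome inhibitor MG132 added 30 min after compound; luciferase reporter driven by HSF1 response element in NIH3T3 cells; actives raise luminescence as potentiators of the MG132 stress response.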 The class given is functional.

For test [7], the target named is Solute carrier family 12 member 2/member 5 (Homo sapiens, UniProt P55011+Q9H2X9). Nature of the test: KCC2 and NKCC1 inhibition by rubidium flux, cell-based, NKCC1 counter-screen (AID 1734). In kind it is functional, HEK293.
Test [8] has as its target Photoreceptor-specific nuclear receptor (Homo sapiens, UniProt Q9Y5X4). Nature of the test: ligands suppressing NR2E3 nuclear receptor activity – biochemical, TR-FRET, dose response (AID 463256). The class given is functional. On the technique in general: In TR-FRET formats the signal depends on donor and acceptor labels being close together.
Test [9] has as its target Peroxisome proliferator-activated receptor gamma/Nuclear receptor corepressor 2 (Homo sapiens, UniProt P37231+Q9Y618). Nature of the test: Counterscreen for NR2E3 inverse agonists: TR-FRET-based biochemical high throughput dose response assay to identify inverse agonists of the interaction between peroxisome proliferator-activated receptor gamma (PPARg) and nuclear receptor co-repressor 2 (NCOR2). The class given is functional.

The target in test [10] is 5-hydroxytryptamine receptor 1A (Homo sapiens, UniProt P08908). The class given is functional.
For test [11], the target named is Voltage-gated inwardly rectifying potassium channel KCNH2 (Homo sapiens, UniProt Q12809). Nature of the test: concentration-dependent hERG rescue from blockers – cell-based, thallium flux, dose response (AID 2121). In kind it is ADME. (In general: Block of hERG is tested as a sign of cardiac risk.)
In the next test the target is NADPH oxidase 1 (Homo sapiens, UniProt Q9Y5S8). Nature of the test: Late-stage luminescence-based cell-based dose response assay to identify inhibitors of NADPH oxidase 1 (NOX1): Synthesized analogs. In kind it is functional.
Another test concerns the target 14-3-3 protein gamma (Homo sapiens, UniProt P61981). In words: modulators of 14-3-3 gamma client binding – dose response (AID 711). In kind it is functional.
Test [12] is described as follows: PAX5 cellular inhibition readout – cell-based, plate reader, dry powder samples, selectivity assay for PAX8 inhibitor project, dose response (AID 743047).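 Further: HEK293 cells carrying a Pax5 driven CD19 promoter luciferase reporter; potency of inhibitors that lower reporter luminescence.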 In kind it is functional.
A further test deals with Paired box protein Pax-8 (Homo sapiens, UniProt Q06710). In words: PAX8 transcriptional activity inhibition in RMG-I – RMG-I cells, luciferase, cherry-pick, dose response (AID 687027).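 Further: luciferase reporter driven by Pax8 target thyroperoxidase promoter measured by SteadyGlo luminescence.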 The class given is functional, cell-based.
Test [13] in a line: COV434 cell viability loss – plate reader, dry powder, SA7, cytotoxicity control for PAX8 inhibitor project, dose response (AID 743145). In kind it is functional, cell-based.
Test [14] in a line: OV-90 cell viability loss – plate reader, dry powder, SA8, PAX8 inhibitor project, dose response (AID 743149). In kind it is functional, cell-based.
Test [15] is described as follows: luciferase reporter signal suppression in cells – H4 neuroglioma cells, luminescence, dose response (AID 1990). In kind it is functional, cell-based.
Test [16] concerns BJ. Nature of the test: growth inhibition of engineered Ras-driven BJ cells – cell-based, alamar blue fluorescence, cherrypicked samples, dose response (AID 2631).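 Further: confirmatory dose-response assay in RAS-dependent BJ fibroblasts engineered with TERT, LT and ST, with cytotoxicity read by fluorescence.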 The class given is functional. The following applies: Homo sapiens.
Test [17] relates to BJ. In words: cells. In kind it is functional, cell-based. The following applies: Homo sapiens.
A short description of test [18]: PAX8-dependent cell viability loss – plate reader, dry powder, dose response (AID 743049). In kind it is functional, cell-based.
The nature of test [19]: Luminescence Cell-Based Dose Response HTS to Identify Inhibitors of 5'UTR Stem-Loop Driven Prion Protein mRNA Translation in H4 Neuroglioblastoma Cells. [Related pubchem assays: 1827 (Project Summary), 1813 (Primary HTS)]. In kind it is functional.
Test [20] can be described thus: alpha-synuclein stem-loop luciferase translation blockers – H4 neuroglioma cells, luminescence, confirmation (AID 1988). The class given is functional, cell-based.
Test [21] is described as follows: IGROV1 cell killing – plate reader, dry powder samples, PAX8 inhibitor project, dose response (AID 743043). In kind it is functional, cell-based. Conditions: IGROV-1.
The nature of test [22]: OVCAR4 cell viability loss – plate reader, dry powder, SA11, cytotoxicity control for PAX8 inhibitor project, dose response (AID 743150). The class given is functional, cell-based. The following applies: OVCAR-4.
Test [23] can be described thus: OVCAR-3 cell viability loss – plate reader, dry powder samples, PAX8 inhibitor project, dose response (AID 743044). The class given is functional, cell-based.
Test [24] can be described thus: DRD fibroblast viability loss – cell-based, non-viral oncogenic, luminescence, dose response (AID 1934). In kind it is functional. Conditions: Homo sapiens.
Test [25] has as its system BJ. Nature of the test: BJ-TERT-LT-ST fibroblast viability loss – cell-based, RAS-independent, luminescence, dose response (AID 1935).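 Further: BJ fibroblasts immortalized with TERT plus LT and ST oncogenes.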 The class given is functional. Conditions: Homo sapiens.
The subject of test [26] is BJ. In words: BJ-TERT fibroblast viability loss – cell-based, RAS-independent, luminescence, dose response (AID 1933). The class given is functional. Conditions: Homo sapiens.
Test [27] is described as follows: Luminescence-based dose response cell-based high throughput screening assay for cytotoxic compounds using the IEC-6 intestinal epithelial cell line. [Related pubchem assays: 1858 (Summary AID.), 1825 (Counterscreen.), 1907 (Confirmation screen.)]. In kind it is functional.
Test [28] can be described thus: A2780 cell killing – plate reader, dry powder samples, cytotoxicity control, dose response (AID 743046). The class given is functional, cell-based.
Test [29] is described as follows: COV362 cell viability loss – plate reader, dry powder, SA12, cytotoxicity control for PAX8 inhibitor project, dose response (AID 743144). The class given is functional, cell-based.
Test [30] is described as follows: toxicity toward immortalized ovarian surface epithelium – cell-based, plate reader, dry powder samples, cytotoxicity control for PAX8 inhibitor project, dose response (AID 743045). The class given is functional.
Test [31] can be described thus: inhibitors acting on PAX2 in cells – cell-based, plate reader, dry powder samples, selectivity assay for PAX8 inhibitor project, dose response (AID 743048).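 Further: HEK293 cells carrying a WT1 promoter luciferase reporter driven by expressed Pax2; potency is for inhibition of Pax2 driven reporter signal.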 The class given is functional.

SMILES strings stand for the structures. Calls of active or inactive are those of the source.

Chain of Voltage-gated inwardly rectifying potassium channel KCNH2 (Q12809 whole entry): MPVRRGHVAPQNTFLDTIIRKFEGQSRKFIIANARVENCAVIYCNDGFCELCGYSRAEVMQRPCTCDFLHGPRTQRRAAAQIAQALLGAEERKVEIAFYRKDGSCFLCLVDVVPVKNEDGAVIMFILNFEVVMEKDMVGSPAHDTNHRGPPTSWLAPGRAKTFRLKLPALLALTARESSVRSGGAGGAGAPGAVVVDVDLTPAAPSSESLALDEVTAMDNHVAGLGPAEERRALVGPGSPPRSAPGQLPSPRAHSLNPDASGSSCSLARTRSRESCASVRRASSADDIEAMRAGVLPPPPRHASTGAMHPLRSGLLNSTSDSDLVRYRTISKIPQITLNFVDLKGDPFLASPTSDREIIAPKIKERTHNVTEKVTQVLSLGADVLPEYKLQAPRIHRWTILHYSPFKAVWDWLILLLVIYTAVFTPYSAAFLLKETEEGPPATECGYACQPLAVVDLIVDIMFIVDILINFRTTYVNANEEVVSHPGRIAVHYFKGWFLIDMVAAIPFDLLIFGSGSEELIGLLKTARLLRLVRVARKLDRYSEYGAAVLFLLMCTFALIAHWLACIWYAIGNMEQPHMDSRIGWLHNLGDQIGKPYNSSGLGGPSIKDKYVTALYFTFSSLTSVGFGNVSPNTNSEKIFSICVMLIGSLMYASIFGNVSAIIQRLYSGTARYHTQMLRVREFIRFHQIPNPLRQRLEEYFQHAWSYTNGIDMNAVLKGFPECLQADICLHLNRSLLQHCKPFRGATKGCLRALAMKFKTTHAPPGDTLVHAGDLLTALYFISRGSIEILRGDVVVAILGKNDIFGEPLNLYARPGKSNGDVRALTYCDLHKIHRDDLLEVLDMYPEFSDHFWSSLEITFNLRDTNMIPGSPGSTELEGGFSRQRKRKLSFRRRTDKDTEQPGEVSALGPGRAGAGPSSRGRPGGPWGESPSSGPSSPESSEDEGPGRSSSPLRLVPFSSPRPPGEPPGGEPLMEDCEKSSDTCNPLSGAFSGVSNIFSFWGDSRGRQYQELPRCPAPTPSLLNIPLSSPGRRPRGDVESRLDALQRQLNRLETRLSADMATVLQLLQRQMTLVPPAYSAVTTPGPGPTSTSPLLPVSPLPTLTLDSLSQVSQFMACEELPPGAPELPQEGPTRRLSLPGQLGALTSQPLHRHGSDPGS
Chain of 5-hydroxytryptamine receptor 1A (P08908 whole entry): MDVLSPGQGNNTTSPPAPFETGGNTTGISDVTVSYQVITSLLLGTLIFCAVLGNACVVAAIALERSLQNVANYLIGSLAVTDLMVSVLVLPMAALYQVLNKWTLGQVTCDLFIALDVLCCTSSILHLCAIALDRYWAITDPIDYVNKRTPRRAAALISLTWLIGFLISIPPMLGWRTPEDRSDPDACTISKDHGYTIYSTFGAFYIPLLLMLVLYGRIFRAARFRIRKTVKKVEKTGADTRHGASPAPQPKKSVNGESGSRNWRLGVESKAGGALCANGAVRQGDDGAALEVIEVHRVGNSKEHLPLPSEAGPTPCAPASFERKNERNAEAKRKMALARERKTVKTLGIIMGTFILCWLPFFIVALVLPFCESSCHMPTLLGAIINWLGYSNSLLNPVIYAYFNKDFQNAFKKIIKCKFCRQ
Chain of Peroxisome proliferator-activated receptor gamma/Nuclear receptor corepressor 2 (P37231 whole entry): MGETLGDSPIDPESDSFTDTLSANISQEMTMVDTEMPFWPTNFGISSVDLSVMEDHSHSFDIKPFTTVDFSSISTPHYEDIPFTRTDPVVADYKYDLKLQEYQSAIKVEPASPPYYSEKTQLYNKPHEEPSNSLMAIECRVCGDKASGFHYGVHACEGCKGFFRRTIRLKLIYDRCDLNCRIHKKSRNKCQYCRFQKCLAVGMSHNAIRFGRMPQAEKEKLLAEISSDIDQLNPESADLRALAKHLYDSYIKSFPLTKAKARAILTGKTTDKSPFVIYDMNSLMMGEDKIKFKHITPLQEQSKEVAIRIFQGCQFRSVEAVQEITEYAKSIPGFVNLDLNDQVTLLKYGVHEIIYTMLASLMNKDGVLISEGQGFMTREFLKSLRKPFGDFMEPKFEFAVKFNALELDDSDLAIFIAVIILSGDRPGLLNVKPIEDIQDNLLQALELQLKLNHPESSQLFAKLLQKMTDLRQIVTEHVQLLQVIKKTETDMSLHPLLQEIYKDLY
Chain of Peroxisome proliferator-activated receptor gamma/Nuclear receptor corepressor 2 (Q9Y618 whole entry): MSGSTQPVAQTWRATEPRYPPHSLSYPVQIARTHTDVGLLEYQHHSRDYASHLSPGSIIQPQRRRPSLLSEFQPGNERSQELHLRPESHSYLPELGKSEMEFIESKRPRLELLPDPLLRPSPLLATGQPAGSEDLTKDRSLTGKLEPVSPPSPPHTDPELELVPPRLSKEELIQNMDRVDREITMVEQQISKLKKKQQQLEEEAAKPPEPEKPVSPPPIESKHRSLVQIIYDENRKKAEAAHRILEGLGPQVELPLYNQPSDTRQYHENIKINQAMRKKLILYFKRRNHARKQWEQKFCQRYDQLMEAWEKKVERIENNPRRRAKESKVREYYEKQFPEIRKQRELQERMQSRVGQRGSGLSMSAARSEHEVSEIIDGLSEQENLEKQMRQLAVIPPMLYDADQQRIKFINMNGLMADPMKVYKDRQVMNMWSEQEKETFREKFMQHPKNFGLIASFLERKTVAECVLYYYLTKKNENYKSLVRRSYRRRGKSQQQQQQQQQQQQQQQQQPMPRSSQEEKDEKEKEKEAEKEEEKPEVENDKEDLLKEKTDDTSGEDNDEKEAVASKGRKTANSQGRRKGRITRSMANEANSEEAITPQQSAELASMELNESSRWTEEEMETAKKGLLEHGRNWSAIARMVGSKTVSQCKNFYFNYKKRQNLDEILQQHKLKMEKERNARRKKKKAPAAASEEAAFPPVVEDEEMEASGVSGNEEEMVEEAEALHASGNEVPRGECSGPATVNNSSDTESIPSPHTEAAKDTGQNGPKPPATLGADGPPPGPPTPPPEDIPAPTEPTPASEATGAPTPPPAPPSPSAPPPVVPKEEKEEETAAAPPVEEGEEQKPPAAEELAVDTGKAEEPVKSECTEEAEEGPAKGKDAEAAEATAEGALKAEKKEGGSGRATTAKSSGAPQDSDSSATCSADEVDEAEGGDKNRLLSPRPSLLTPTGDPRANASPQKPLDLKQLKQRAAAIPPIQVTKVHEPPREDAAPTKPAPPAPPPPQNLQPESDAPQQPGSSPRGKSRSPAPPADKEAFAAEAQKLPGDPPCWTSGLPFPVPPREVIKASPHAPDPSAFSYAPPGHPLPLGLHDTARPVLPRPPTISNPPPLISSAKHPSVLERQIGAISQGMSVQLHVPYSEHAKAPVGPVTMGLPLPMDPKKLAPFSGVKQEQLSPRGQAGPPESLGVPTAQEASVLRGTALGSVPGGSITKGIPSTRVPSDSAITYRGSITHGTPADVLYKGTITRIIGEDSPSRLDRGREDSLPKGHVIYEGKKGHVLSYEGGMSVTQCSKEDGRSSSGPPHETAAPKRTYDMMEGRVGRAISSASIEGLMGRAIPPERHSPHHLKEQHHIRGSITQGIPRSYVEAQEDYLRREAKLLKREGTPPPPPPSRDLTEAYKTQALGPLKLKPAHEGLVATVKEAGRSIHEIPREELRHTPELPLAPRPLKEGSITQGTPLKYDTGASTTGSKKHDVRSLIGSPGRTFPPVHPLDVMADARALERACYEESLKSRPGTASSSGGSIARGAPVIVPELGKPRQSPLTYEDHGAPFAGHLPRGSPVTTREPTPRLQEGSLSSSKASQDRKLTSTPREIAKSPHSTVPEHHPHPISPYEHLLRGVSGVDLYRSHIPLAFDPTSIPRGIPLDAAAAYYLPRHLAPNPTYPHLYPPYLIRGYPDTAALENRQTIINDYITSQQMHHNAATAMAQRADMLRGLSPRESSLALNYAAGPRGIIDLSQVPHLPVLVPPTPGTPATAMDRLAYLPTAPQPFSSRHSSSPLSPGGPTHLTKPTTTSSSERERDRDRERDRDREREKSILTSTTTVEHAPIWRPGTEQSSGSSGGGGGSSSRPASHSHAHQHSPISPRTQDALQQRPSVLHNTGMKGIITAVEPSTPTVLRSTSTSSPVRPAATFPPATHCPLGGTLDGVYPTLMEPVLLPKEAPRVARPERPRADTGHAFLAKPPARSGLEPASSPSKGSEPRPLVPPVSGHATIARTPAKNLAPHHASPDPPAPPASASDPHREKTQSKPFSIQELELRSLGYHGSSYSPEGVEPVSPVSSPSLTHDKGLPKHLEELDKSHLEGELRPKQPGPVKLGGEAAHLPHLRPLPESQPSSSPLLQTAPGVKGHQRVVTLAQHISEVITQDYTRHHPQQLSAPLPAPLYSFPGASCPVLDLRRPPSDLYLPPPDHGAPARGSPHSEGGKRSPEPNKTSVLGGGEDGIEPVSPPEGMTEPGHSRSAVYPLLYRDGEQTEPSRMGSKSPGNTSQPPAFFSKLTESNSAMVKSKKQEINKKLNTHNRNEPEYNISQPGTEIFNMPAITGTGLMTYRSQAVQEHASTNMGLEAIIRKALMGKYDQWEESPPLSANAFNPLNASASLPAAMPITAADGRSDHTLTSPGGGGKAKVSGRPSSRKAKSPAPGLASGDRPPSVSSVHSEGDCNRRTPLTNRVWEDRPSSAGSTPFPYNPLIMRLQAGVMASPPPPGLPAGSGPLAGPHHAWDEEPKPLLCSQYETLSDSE
Chain of Serine/threonine-protein phosphatase PP1-alpha catalytic subunit (P62136 whole entry): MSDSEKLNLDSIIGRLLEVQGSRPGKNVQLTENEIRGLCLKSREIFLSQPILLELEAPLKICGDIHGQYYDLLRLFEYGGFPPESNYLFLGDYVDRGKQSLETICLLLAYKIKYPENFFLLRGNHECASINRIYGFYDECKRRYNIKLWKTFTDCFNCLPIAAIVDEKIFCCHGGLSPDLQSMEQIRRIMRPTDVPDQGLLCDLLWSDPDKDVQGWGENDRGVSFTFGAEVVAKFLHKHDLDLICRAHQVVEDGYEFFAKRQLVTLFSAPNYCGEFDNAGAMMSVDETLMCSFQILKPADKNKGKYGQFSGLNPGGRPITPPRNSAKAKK

The term AC50 denotes the concentration at which the activity in the assay is half-maximal. Usually EC50 stands for the concentration at which the effect is half-maximal. A word on the IC50: it is the concentration at which inhibition is half-maximal. For the molecule `O=C1C(Cl)=C(N2CCN(c3ccccc3[N+](=O)[O-])CC2)C(=O)c2ccccc21`, the AC50 in [1] was 3.59 µM (active); with A-375, 15.6 µM (active). The EC50 in test [2] was 5.82 µM (active); in test [3], 4.51 µM (active); in test [6] it was 0.734 µM (inconclusive). Further, the IC50 at Beta-galactosidase was > 66.6 µM (inactive); in test [4], 29.5 µM (not active); in test [5], > 67 µM (not active).
With `O=C(CN1C(=O)NC2(CCCC2)C1=O)Nc1nc(-c2ccc(F)cc2)cs1`, in test [7], the IC50 was 2.9 µM (active).
In the case of `O=C(NCc1ccccn1)c1cccn1-c1ncc(C(F)(F)F)cc1Cl`, the IC50 in [8] was 9.98 µM (active); in test [9] it was 9.96 µM (active).
Turning to `CCOC(=O)C1=C(C)NC(=O)NC1c1ccc(OCC(=O)Nc2ccccc2)c(OC)c1` (stereo unspecified), the EC50 in test [10] is given as > 50 µM (not active).
With `O=C(NC(=S)NCCc1ccccc1)c1cccc(Cl)c1`, the EC50 in test [11] is 3.5 µM (active).
With `CC(=NNc1ccc(C(=O)O)cc1)c1ccc2c(c1)Nc1ccccc1S2`, the IC50 on NADPH oxidase 1 is 0.561 µM (active).
As for `Cc1ccc(-n2c(=O)[nH]cc(C(=O)Nc3ccc4c(c3)OCCO4)c2=O)cc1C`, the IC50 at 14-3-3 protein gamma was > 50 µM (not active).
In the case of `CCN(CC)c1ccc2c(cc1=O)[C@@H](NC)CCc1cc(OC)c(OC)c(OC)c1-2`, the concentration at half-maximal activity (AC50) in test [12] is 2.89 µM (active); at Paired box protein Pax-8, 2.9 µM (active); in test [13] it was 3.45 µM (active); in [14], 1.63 µM (active); in [18], 6.61 µM (active); in [21], 5.6 µM (active). The AC50 is 3.39 µM (active) in test [22]; 7.15 µM (active) in [23]; 11.7 µM (active) in test [28]; 2.73 µM (active) in test [29]; 6.57 µM (active) in [30]; 5.95 µM (active) in [31]. In addition, the EC50 was 1.03 µM (active) in test [15]; 0.343 µM (active) in the test with BJ [16]; 1.36 µM (inconclusive) in the test with BJ [17]; 0.684 µM (active) in test [19]; 0.35 µM (active) in [20]; 0.953 µM (active) in test [24]. Moreover, the results for the EC50 with BJ [25] and in the test on BJ [26] were 1.07 µM (inconclusive) and 1.62 µM (active), respectively. Besides, in [27], the IC50 is 1.49 µM (active).
